Source: patent publication US20240139138A1, “COMPOSITION OF AND METHOD FOR TREATING INJURY AND/OR SKIN CONDITIONS” (Omeza Holdings, Inc., priority 2022, published 2024)

Key:
[1] = system: Methicillin Resistant Staphylococcus aureus MRSA USA300; experiment: In-vitro agar well diffusion, zone of bacterial growth inhibition; format: cell-based
Protocol: All challenge inoculum suspensions were prepared by swabbing a 3-cm diameter area of the growth from a culture plate into 4.5 ml of sterile phosphate buffer solution (PBS). […] The concentration was confirmed using historical optical density measurements. […] Concentrations of 10^4 CFU/ml for each bacteria was tested in this study.
Three (3) plates of Tryptic soy agar with 5% sheep blood (TSAII) per treatment for each bacteria was challenged with 100 μl of each inoculum 10^4 CFU/ml (MRSA USA300 or PA27312).
Inoculums were spread around each plate using 3 mm sterile glass beads.
Three (10 mm) punch biopsies were made on all inoculated TSAII blood culture media plates and those biopsies were removed with a sterile spatula to create wells on each plate.
Approximately 150-200 μl of each treatment was placed in the well of the inoculated TSA II plates. […] Negative Control Petrolatum or Sterile PBS.
Treatments were allowed to diffuse into agar for approximately 2-3 hours at room temperature prior to incubating plates for 24 hours at 37° C.
After the incubation period, the zones of bacteria growth inhibition (if any) were measured using ImageJ 1.4lo software.
IBM SSPS Statistics Version 26 with ANOVA statistical analysis was used to determine any differences between treatments.

[2] = Solubility in anhydrous lipophilic oil composition
[3] = average of 9 wells, 10^4 CFU/ml
[4] = average of 9 wells, 10^4 CFU/ml, ImageJ area

Row | SMILES | zone of inhibition, comparison in words ([1]; MRSA USA300) | Average Inhition in cm2 [1, 3] | Diameter cm (of average inhibition zone) [1, 3] | Average Inhibition Zone vs Each disk [1, 4] | Average Inhibition Zone vs disk average [1, 4] | areas of inhibition zones ([1]; mean ± spread, 10^4 CFU/ml MRSA USA300) | inherent solubility in an oil [2]
1 | C/C(=C\C(=O)OCCCCCCCCC(=O)O)C[C@@H]1OC[C@H](C[C@@H]2O[C@H]2[C@@H](C)[C@H](C)O)[C@@H](O)[C@H]1O [Mupirocin] | largest zone of inhibition | 42.81 cm2 | 7.3849 cm | 244618.78 | 244618.78 | 42.81±0.29 cm^2 | –
2 | CCCCCCCCCCCC(=O)OCC(O)CO (stereo not shown) [monolaurin, glycerol monolaurate] | – | – | – | – | – | – | less than or equal to 0.6%
